# Laboratory results published in ChEMBL document CHEMBL1128912, “DNA cleavage of novel propargylic sulfones. Enhancement of potency via intercalating interaction” (Bioorg Med Chem Lett, 1996).
# System: KB
# Assay: Cytotoxicity was evaluated by using KB/P cancer cells
# Assay type: functional, cell-based
# Conditions: Homo sapiens
compound,measurement,value
O=S(=O)(CC#CCCCCC#CCO)c1ccccc1,IC50,5.3 µM
